Where “and” joins values, the source holds several entries; their conditions need not be identical. Equal entries are not always repeated.
Assays:
[1] = (§1) Mouse liver microsomal stability of compound in microsomal protein, PBS buffer pH 7.4, NADPH, glucose-6-phosphate and glucose-6-phosphate dehydrogenase media. Aliquotes were taken at 5 time points and after stopping the reaction, supernatants were analyzed using HPLC coupled with a tandem mass spectrometer. The elimination constant, half-life, and intrinsic clearance are determined as results using linear regression analysis.; format: ADME, microsomes, Microsome; details: for half-life / microsomal CLint: liver microsomes
[2] = as §1, with “Human” for “Mouse”; format: ADME, microsomes, Microsome; details: for half-life / microsomal CLint: liver microsomes; for Remaining / Remaining (without cofactor) / CLint / T1/2: microsomes
Throughout, for Remaining (without cofactor): time not given here.
Throughout, for Remaining: time not given here.

| half-life [1] | microsomal CLint [1] | Remaining ([1]; microsomes) | Remaining (without cofactor) ([1]; microsomes) | half-life [2] | microsomal CLint [2] | Remaining [2] | Remaining (without cofactor) [2] | CLint [2] | T1/2 [2] | CLint ([1]; microsomes) | T1/2 ([1]; microsomes) | SMILES |
| --- | --- | --- | --- | --- | --- | --- | --- | --- | --- | --- | --- | --- |
| 0.506 h | 45.6 µL/min/mg | 39.045% | 100.041% | 0.39 h | 71.3 µL/min/mg | 32.8% | 112.27% |  |  |  |  | CNC(=O)c1cc(Cl)c(F)cc1NS(=O)(=O)c1ccc(Oc2ccccc2Cl)cc1 |
| > 2.89 h | < 10 µL/min/mg | 93.147% | 101.58% | > 2.89 h | < 10 µL/min/mg | 90.394% | 113.364% |  |  |  |  | N#CCCNC(=O)[C@H](Nc1ccc2c(c1)CNC2)c1cc(Cl)cc(C2CC2)c1 |
| 1.6 h | 17.4 µL/min/mg | 76.547% | 97.886% | 1.75 h | 15.9 µL/min/mg | 77.399% | 95.756% |  |  |  |  | O=C(NCCCF)[C@H](Nc1ccc2c(c1)CNC2)c1cc(Cl)cc(C2CC2)c1 |
| 1.53 h | 18.2 µL/min/mg | 76.341% | 103.175% | > 2.89 h | < 10 µL/min/mg | 100.772% | 105.44% |  |  |  |  | Cn1cc2c(C(=O)Nc3ccc4c(c3)CNC4)cc(F)cc2n1 |
| 1.27 h | 22 µL/min/mg | 68.981% | 99.493% | > 2.89 h | < 10 µL/min/mg | 89.52% | 98.721% |  |  |  |  | N#Cc1cccc(-c2nc3c(C(=O)Nc4ccc5c(c4)CNC5)cc(F)cc3[nH]2)c1 |
| > 2.89 h | < 10 µL/min/mg | 102.559% | 103.618% | > 2.89 h | < 10 µL/min/mg | 90.707% | 85.739% |  |  |  |  | O=C1Cc2c(cccc2C(=O)Nc2ccc3c(c2)CNC3)N1 |
| 2.52 h | 11 µL/min/mg | 84% | 98.417% |  |  | 67.537% and 102.526% | 101.395% and 117.42% | 23.218 µL/min/mg and < 10 µL/min/mg | 1.199 h and > 2.888 h |  |  | CC(C)NC(=O)[C@H](Nc1ccc2c(c1)CNC2)c1cc(Cl)cc2[nH]c(-c3ccccc3)nc12 |
| 0.695 h | 33 µL/min/mg | 52% | 101% | 1.8 h | 15 µL/min/mg | 82% | 110% |  |  |  |  | COc1cc(Cc2c(-c3ccc(F)cc3)noc2C)nc(N2CCNCC2)n1 |
| 0.0717 h | 388 µL/min/mg | 0.854% | 95.554% |  |  |  |  |  |  |  |  | Cc1c(C(=O)Nc2cc(-c3cccnc3)ccn2)cc(C2CC2)n1C |
| 0.153 h | 181 µL/min/mg | 5% | 96% | 0.167 h | 167 µL/min/mg | 6% | 98% |  |  |  |  | O=C(/C=C/c1ccccc1)C(=O)N1CCN(CCc2ccccc2)CC1 |
| > 2.89 h | < 10 µL/min/mg | 95.033% | 94.186% | > 2.89 h | < 10 µL/min/mg | 91.331% | 107.659% |  |  |  |  | CNC(=O)[C@H](Nc1ccc2c(c1)CNC2)c1cc(Cl)cc2[nH]c(-c3ccccc3)nc12 |
| 30 h | 1 µL/min/mg | 103% | 106% | 2.48 h | 11 µL/min/mg | 87% | 100% |  |  |  |  | NCc1cccc(NC(=O)[C@@H](NC(=O)OCc2ccccc2)c2ccc(OCc3ccccc3)cc2)c1 |
| 8.46 h | 2.73 µL/min/mg | 103.125% | 96.808% | 7.17 h | 3.88 µL/min/mg | 94.901% | 89.996% |  |  |  |  | NCc1cccc(CNC(=O)[C@@H](NC(=O)OCc2ccccc2)c2ccc(OCc3ccccc3)cc2)c1 |
| 0.636 h | 43.8 µL/min/mg | 49.173% | 86.086% | 2.18 h | 12.8 µL/min/mg | 80.427% | 94.891% |  |  |  |  | O=C(Nc1ccc2c(c1)CNC2)c1cc(Br)cc2[nH]c(-c3ccccc3)nc12 |
|  |  |  |  | > 2.89 h | < 10 µL/min/mg | 89.704% | 102.436% |  |  |  |  | NCc1cc(C(=O)O)cc([C@@H]2C[C@H]2c2cc(Cl)cc(NC(=O)OCc3ccccc3)c2)c1 |
| > 2.89 h | < 10 µL/min/mg | 102.985% | 100.305% |  |  |  |  |  |  |  |  | O=C1Cc2cc(C(=O)Nc3ccc4c(c3)CNC4)ccc2N1 |
|  |  |  |  | 5.26 h | 5.29 µL/min/mg | 90.368% | 108.836% |  |  |  |  | NCc1cccc(NC(=O)[C@@H](NC(=O)OCc2ccccc2)C2CCCCC2)c1 |
|  |  |  |  | 1.31 h | 21.3 µL/min/mg | 70.065% | 102.307% |  |  |  |  | CNC(=O)[C@H](Nc1cc(Cl)cc(NC(=O)OCc2ccccc2)c1)c1cccc(-c2nn[nH]n2)c1 |
|  |  |  |  | 2.77 h | 10.1 µL/min/mg | 84.591% | 100.465% |  |  |  |  | C=CC[C@H](Nc1ccc(-c2nn[nH]n2)cc1)c1cc(Cl)cc(NC(=O)OCc2ccccc2)c1 |

More lines, now with the values behind:

| SMILES | half-life [1] | microsomal CLint [1] | Remaining ([1]; microsomes) | Remaining (without cofactor) ([1]; microsomes) | half-life [2] | microsomal CLint [2] | Remaining [2] | Remaining (without cofactor) [2] | CLint [2] | T1/2 [2] | CLint ([1]; microsomes) | T1/2 ([1]; microsomes) |
| --- | --- | --- | --- | --- | --- | --- | --- | --- | --- | --- | --- | --- |
| O=C(Nc1cc2c(cc1Br)CNC2)c1cc(F)cc2[nH]ncc12 | 0.093 h | 299 µL/min/mg | 0.737% | 95.151% | 2.44 h | 11.4 µL/min/mg | 83.663% | 98.81% |  |  |  |  |
| O=C(NCC(F)F)[C@H](Nc1ccc2c(c1)CNC2)c1cc(Cl)cc2c1CCC2 | 0.882 h | 31.6 µL/min/mg | 60.623% | 103.851% | 1.99 h | 14 µL/min/mg | 80.194% | 105.323% |  |  |  |  |
| CO[C@H]1C[C@H](n2ncc3c(C(=O)Nc4ccc5c(c4)CNC5)cc(Cl)cc32)C1 | > 2.89 h | < 10 µL/min/mg | 91.321% | 100.159% | > 2.89 h | < 10 µL/min/mg | 104.617% | 107.995% |  |  |  |  |
| O=C(Nc1cc(Br)c2c(c1)CNC2)c1cc(F)cc2[nH]ncc12 | 0.192 h | 145 µL/min/mg | 10.289% | 104.117% | 2.05 h | 13.6 µL/min/mg | 77.163% | 100.794% |  |  |  |  |
| CSc1cc2c(cc1NC(=O)c1cc(F)cc3[nH]ncc13)CNC2 | 0.212 h | 131 µL/min/mg | 11.381% | 93.133% | > 2.89 h | < 10 µL/min/mg | 88.673% | 103.344% |  |  |  |  |
| COc1cc(Cl)cc([C@H](Nc2ccc3c(c2)CNC3)C(=O)NCC(F)F)c1 | 2.16 h | 12.9 µL/min/mg | 81.928% | 96.342% | > 2.89 h | < 10 µL/min/mg | 91.954% | 107.924% |  |  |  |  |
| O=C(Nc1ccc2c(c1)CNC2)c1cc(Cl)cc2cn[nH]c12 | 0.516 h | 54 µL/min/mg | 41.728% | 98.046% | > 2.89 h | < 10 µL/min/mg | 105.314% | 104.393% |  |  |  |  |
| O=C(Nc1ccc2c(c1)CNC2)c1cc(F)cc(-c2cn[nH]c2)c1 | 0.051 h | 545 µL/min/mg | 0.198% and 0.909% | 96.471% and 97.807% | 0.79 h | 35.2 µL/min/mg | 55.679% and 55.059% | 98.537% and 92.131% | 36.323 µL/min/mg | 0.76638 h | 553.458 µL/min/mg | 3.018 min |
| Cc1cc([C@H](Nc2ccc3c(c2)CNC3)C(=O)NCC(F)F)cc(C(F)(F)F)c1 | 2.49 h | 11.2 µL/min/mg | 85.983% | 88.687% | > 2.89 h | < 10 µL/min/mg | 89.032% | 105.687% |  |  |  |  |
| O=C(Nc1ccc2c(c1)CNC2)c1cc(Cl)cc2c1cnn2C1CCC1 | 2.08 h | 13.4 µL/min/mg | 78.077% | 96.092% | > 2.89 h | < 10 µL/min/mg | 93.064% | 105.277% |  |  |  |  |
| O=C(NCC(F)F)[C@H](Nc1cc2c(cc1Br)CNC2)c1cc(Cl)cc(C2CC2)c1 | 1.21 h | 22.9 µL/min/mg | 69.524% | 97.036% | 1.08 h | 25.9 µL/min/mg | 67.209% | 94.723% |  |  |  |  |
| O=C(Nc1ccc2c(c1)CNC2)c1cc(Cl)cc2ccncc12 | 1.14 h | 24.5 µL/min/mg | 67.731% | 99.51% | > 2.89 h | < 10 µL/min/mg | 107.799% | 101.944% |  |  |  |  |
| Clc1ccc2[nH]cc(Cc3ccc(-c4nn[nH]n4)cc3)c2c1 |  |  |  |  | > 2.89 h | < 10 µL/min/mg | 98.893% | 98.069% |  |  |  |  |
